Measured values from paper PMC12040169 (PLOS Biology, 2025).

Columns and labels:
in vitro = test: in vitro; parameters: Viability of infected HeLa host cells, resazurin conversion, bulk resorufin fluorescence relative to DMSO; details: human, hela cells; bulk resorufin, mean of 2
[1] = tested on: T1, CTL2-GFP (C. trachomatis L2/434/Bu, GFP-expressing); test: microbe, parasite or virus in culture; parameters: Intracellular C. trachomatis growth in HeLa cells, bulk GFP fluorescence relative to DMSO; details: Chlamydia trachomatis, HeLa, 28.5 h; bulk GFP, mean of 2; read-out: % of control remaining
T1 construct: L2/434/Bu, GFP-expressing
Procedure: MICs were calculated as described above.

[2] = tested on: T2, C. trachomatis L2/434/Bu expressing GFP (CTL2-GFP); test: microbe, parasite or virus in culture; parameters: C. trachomatis total inclusion area by high-content imaging, normalised to DMSO; details: Chlamydia trachomatis, HeLa, 28.5 h; total inclusion area; read-out: % of control remaining
T2 construct: L2/434/Bu GFP intracellular growth in HeLa cells
Excerpt: We screened a library of 36,785 small molecules displaying drug-like properties and covering a wide chemical space (Fig 1A and S2A Data). In this process, we also complemented the assay described above with an imaging-based readout (Fig 1B). After measurements of bulk GFP and resorufin fluorescence, cells were fixed, stained with the DNA dye Hoechst, and imaged at a high-content imaging platform to detect chlamydial inclusions (GFP) and host cell nuclei (Hoechst). The total area and number of inclusions in individual wells and the number of nuclei then served as additional proxies for chlamydial growth and host cell viability. […] MICs were calculated as described above.

Structure (SMILES): CCc1ccc(S(=O)(=O)Nc2cc(SCC(=O)O)c(O)c3ccccc23)cc1 [CBK265580]
- viability at 28.5 h, 1 µM (in vitro): 95.6%
- viability at 28.5 h, 5 µM (in vitro): 88.8%
- viability at 28.5 h, 10 µM (in vitro): 81.9%
- activity at 1 µM [1]: 97.7%
- activity at 5 µM [1]: 47%
- activity at 10 µM [1]: 37.3%
- activity at 1 µM [2]: 84.1%
- activity at 5 µM [2]: 15.3%
- activity at 10 µM [2]: 7.41%

Structure (SMILES): CCC1C(c2ccc(C)cc2)=CCC(C(=O)NCCCN(C)C)C1C (stereo not drawn) [CBK016514]
- viability at 28.5 h, 1 µM (in vitro): 104%
- viability at 28.5 h, 5 µM (in vitro): 88.9%
- viability at 28.5 h, 10 µM (in vitro): 100%
- activity at 1 µM [1]: 112%
- activity at 5 µM [1]: 33.9%
- activity at 10 µM [1]: 9.47%
- activity at 1 µM [2]: 109%
- activity at 5 µM [2]: 44.4%
- activity at 10 µM [2]: 8.47%

Structure (SMILES): OCCNc1nc(Nc2ccc(Br)cc2)nc2ccccc12 [CBK266724C]
- viability at 28.5 h, 1 µM (in vitro): 122%
- viability at 28.5 h, 5 µM (in vitro): 116%
- viability at 28.5 h, 10 µM (in vitro): 121%
- activity at 1 µM [1]: 69.3%
- activity at 5 µM [1]: 0.15%
- activity at 10 µM [1]: 0%
- activity at 1 µM [2]: 59.5%
- activity at 5 µM [2]: 2.92%
- activity at 10 µM [2]: 0.726%

Structure (SMILES): CC(Oc1cccc2ccccc12)C(=S)N(C)c1ccccc1 (stereo not drawn) [CBK016158]
- viability at 28.5 h, 1 µM (in vitro): 113%
- viability at 28.5 h, 5 µM (in vitro): 117%
- viability at 28.5 h, 10 µM (in vitro): 107%
- activity at 1 µM [1]: 98.8%
- activity at 5 µM [1]: 81.4%
- activity at 10 µM [1]: 67.6%
- activity at 1 µM [2]: 105%
- activity at 5 µM [2]: 98.3%
- activity at 10 µM [2]: 84.8%

Structure (SMILES): COc1ccc([C@H]2CN(Cc3ccccc3)[C@@H]3CCN(C(=O)Cc4ccsc4)C[C@H]23)cc1 [CBK285551]
- viability at 28.5 h, 1 µM (in vitro): 89.3%
- viability at 28.5 h, 5 µM (in vitro): 93.6%
- viability at 28.5 h, 10 µM (in vitro): 93%
- activity at 1 µM [1]: 151%
- activity at 5 µM [1]: 107%
- activity at 10 µM [1]: 36.7%
- activity at 1 µM [2]: 148%
- activity at 5 µM [2]: 87.9%
- activity at 10 µM [2]: 48.8%

Structure (SMILES): O=C(O)/C(=N\c1cccc2ccccc12)c1ccccc1 [CBK262224]
- viability at 28.5 h, 1 µM (in vitro): 87.4%
- viability at 28.5 h, 5 µM (in vitro): 88.7%
- viability at 28.5 h, 10 µM (in vitro): 96%
- activity at 1 µM [1]: 80.4%
- activity at 5 µM [1]: 66.5%
- activity at 10 µM [1]: 49.9%
- activity at 1 µM [2]: 69.5%
- activity at 5 µM [2]: 62.2%
- activity at 10 µM [2]: 32.2%

Structure (SMILES): CC(C)Nc1nc2cc(Cl)c(Cl)cc2nc1Sc1cccc(O)c1 [CBK093732]
- viability at 28.5 h, 1 µM (in vitro): 95.8%
- viability at 28.5 h, 5 µM (in vitro): 88%
- viability at 28.5 h, 10 µM (in vitro): 100%
- activity at 1 µM [1]: 124%
- activity at 5 µM [1]: 94.8%
- activity at 10 µM [1]: 55.6%
- activity at 1 µM [2]: 129%
- activity at 5 µM [2]: 50.2%
- activity at 10 µM [2]: 35.1%

Structure (SMILES): Cc1cc(C(=O)Nc2ccc(S(=O)(=O)Nc3onc(C)c3C)cc2)no1 [CBK268166]
- viability at 28.5 h, 1 µM (in vitro): 101%
- viability at 28.5 h, 5 µM (in vitro): 92.7%
- viability at 28.5 h, 10 µM (in vitro): 100%
- activity at 1 µM [1]: 113%
- activity at 5 µM [1]: 81.5%
- activity at 10 µM [1]: 33.7%
- activity at 1 µM [2]: 89.9%
- activity at 5 µM [2]: 77.7%
- activity at 10 µM [2]: 61.3%

Structure (SMILES): COCCNc1nc2c(c(N3CCCCCC3)n1)CCNCC2 [CBK306724]
- viability at 28.5 h, 1 µM (in vitro): 98%
- viability at 28.5 h, 5 µM (in vitro): 97.9%
- viability at 28.5 h, 10 µM (in vitro): 92.9%
- activity at 1 µM [1]: 76%
- activity at 5 µM [1]: 7.81%
- activity at 10 µM [1]: 4.81%
- activity at 1 µM [2]: 79.4%
- activity at 5 µM [2]: 0.64%
- activity at 10 µM [2]: 0.424%

Structure (SMILES): CCCCc1ccc(NC(=N)Nc2nc(C)cc(C)n2)cc1 [CBK262967]
- viability at 28.5 h, 1 µM (in vitro): 90.3%
- viability at 28.5 h, 5 µM (in vitro): 95.4%
- viability at 28.5 h, 10 µM (in vitro): 90%
- activity at 1 µM [1]: 89.4%
- activity at 5 µM [1]: 33.4%
- activity at 10 µM [1]: 22%
- activity at 1 µM [2]: 75.4%
- activity at 5 µM [2]: 38.5%
- activity at 10 µM [2]: 9.61%

Structure (SMILES): Cc1cccc(N(C)S(=O)(=O)c2ccc(N3CCCNCC3)c3ccccc23)c1C [CBK004430C]
- viability at 28.5 h, 1 µM (in vitro): 89.7%
- viability at 28.5 h, 5 µM (in vitro): 84.9%
- viability at 28.5 h, 10 µM (in vitro): 88.8%
- activity at 1 µM [1]: 142%
- activity at 5 µM [1]: 95.8%
- activity at 10 µM [1]: 45.1%
- activity at 1 µM [2]: 121%
- activity at 5 µM [2]: 56.7%
- activity at 10 µM [2]: 8.36%

Structure (SMILES): Cc1ccc(CNC(=O)OCc2cccnc2C)o1 [CBK200131]
- viability at 28.5 h, 1 µM (in vitro): 102%
- viability at 28.5 h, 5 µM (in vitro): 104%
- viability at 28.5 h, 10 µM (in vitro): 101%
- activity at 1 µM [1]: 120%
- activity at 5 µM [1]: 111%
- activity at 10 µM [1]: 119%
- activity at 1 µM [2]: 120%
- activity at 5 µM [2]: 61.9%
- activity at 10 µM [2]: 91.2%

Structure (SMILES): c1ccc(CNc2nnc(-c3ccccc3)s2)cc1 [CBK074928]
- viability at 28.5 h, 1 µM (in vitro): 95%
- viability at 28.5 h, 5 µM (in vitro): 91.9%
- viability at 28.5 h, 10 µM (in vitro): 104%
- activity at 1 µM [1]: 92.7%
- activity at 5 µM [1]: 77.6%
- activity at 10 µM [1]: 65.1%
- activity at 1 µM [2]: 68.4%
- activity at 5 µM [2]: 34.4%
- activity at 10 µM [2]: 26.9%

Structure (SMILES): COc1ccc(OC)c(Nc2nc(NCC3CCCO3)c3ccccc3n2)c1 (stereo not drawn) [CBK268403C]
- viability at 28.5 h, 1 µM (in vitro): 97.5%
- viability at 28.5 h, 5 µM (in vitro): 96.9%
- viability at 28.5 h, 10 µM (in vitro): 99.1%
- activity at 1 µM [1]: 127%
- activity at 5 µM [1]: 105%
- activity at 10 µM [1]: 26.6%
- activity at 1 µM [2]: 73.4%
- activity at 5 µM [2]: 61%
- activity at 10 µM [2]: 10.2%

Structure (SMILES): O=C(NCc1ccc([N+](=O)[O-])cc1)c1cccnc1NCc1ccc2c(c1)OCO2 [CBK153436]
- viability at 28.5 h, 1 µM (in vitro): 103%
- viability at 28.5 h, 5 µM (in vitro): 109%
- viability at 28.5 h, 10 µM (in vitro): 109%
- activity at 1 µM [1]: 113%
- activity at 5 µM [1]: 68.2%
- activity at 10 µM [1]: 25.1%
- activity at 1 µM [2]: 65.8%
- activity at 5 µM [2]: 65.9%
- activity at 10 µM [2]: 38.2%

Structure (SMILES): CCc1nnc(NS(=O)(=O)c2ccc(NC(=S)NC(=O)c3ccco3)cc2)s1 [CBK018917]
- viability at 28.5 h, 1 µM (in vitro): 100%
- viability at 28.5 h, 5 µM (in vitro): 94.7%
- viability at 28.5 h, 10 µM (in vitro): 115%
- activity at 1 µM [1]: 117%
- activity at 5 µM [1]: 56.1%
- activity at 10 µM [1]: 18.8%
- activity at 1 µM [2]: 79.7%
- activity at 5 µM [2]: 57%
- activity at 10 µM [2]: 24.2%

Structure (SMILES): COc1cc(C=C2SC(NCC(=O)O)=NC2=O)ccc1OCc1ccc(Cl)cc1Cl [CBK297555]
- viability at 28.5 h, 1 µM (in vitro): 88.5%
- viability at 28.5 h, 5 µM (in vitro): 92.1%
- viability at 28.5 h, 10 µM (in vitro): 88.9%
- activity at 1 µM [1]: 135%
- activity at 5 µM [1]: 155%
- activity at 10 µM [1]: 200%
- activity at 1 µM [2]: 110%
- activity at 5 µM [2]: 86.9%
- activity at 10 µM [2]: 44%

Structure (SMILES): Oc1ccc(Cn2cnc3ccccc32)c2cccnc12 [CBK291202]
- viability at 28.5 h, 1 µM (in vitro): 105%
- viability at 28.5 h, 5 µM (in vitro): 104%
- viability at 28.5 h, 10 µM (in vitro): 96%
- activity at 1 µM [1]: 103%
- activity at 5 µM [1]: 47.1%
- activity at 10 µM [1]: 19.3%
- activity at 1 µM [2]: 116%
- activity at 5 µM [2]: 52.7%
- activity at 10 µM [2]: 24.3%

Structure (SMILES): O=C(N/N=C\c1ccc([N+](=O)[O-])o1)c1nc(-c2ccccc2)cc(-c2ccccc2)n1 [CBK261958]
- viability at 28.5 h, 1 µM (in vitro): 90%
- viability at 28.5 h, 5 µM (in vitro): 91.8%
- viability at 28.5 h, 10 µM (in vitro): 87.8%
- activity at 1 µM [1]: 6.03%
- activity at 5 µM [1]: 1.53%
- activity at 10 µM [1]: 7.08%
- activity at 1 µM [2]: 4.65%
- activity at 5 µM [2]: 0.0567%
- activity at 10 µM [2]: 0%

Structure (SMILES): COc1ccc2[nH]cc(CCNC(=O)c3ccc(Cl)c(Cl)c3)c2c1 [CBK115870]
- viability at 28.5 h, 1 µM (in vitro): 93.3%
- viability at 28.5 h, 5 µM (in vitro): 88.8%
- viability at 28.5 h, 10 µM (in vitro): 92.1%
- activity at 1 µM [1]: 132%
- activity at 5 µM [1]: 66.5%
- activity at 10 µM [1]: 33.8%
- activity at 1 µM [2]: 109%
- activity at 5 µM [2]: 78.8%
- activity at 10 µM [2]: 40.9%
